# Test results published in US6355799B1, “Substituted benzene compounds, process for their preparation, and herbicidal and defoliant compositions containing them” (ISK Americas Incorporated, priority 1997, dated 2002).
# Experiments:
# Assay type in all cases: in vivo
# [1] = test system: upland rice (Oryza sp., var. Tebonnet, RICE); test: Post-emerge test, crop safety; details: rating scale 0-100 (0 no damage, 100 complete death), 14 days after application
# Procedure, shortened: (§1)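 Fourteen days after spraying, crop and weed injury was graded visually from 0, no effect, to 100, every plant dead. Test substances were dissolved in acetone and applied at 15–1000 g ai/ha with a flat-fan nozzle. Application was either pre-emergence, one day after sowing, or post-emergence at the 2–3 leaf stage.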
# [2] = test system: field corn (Zea mays L., var. Dekalb 535, CORN); test: Post-emerge test, crop safety; details: rating scale 0-100 (0 no damage, 100 complete death), 14 days after application
# Procedure, shortened: as §1
# [3] = test system: sicklepod (Cassia obtusifolia, CASOB); test: Post-emerge test, greenhouse herbicide activity screening; details: rating scale 0-100 (0 no damage, 100 complete death), 14 days after application
# Procedure, shortened: (§2)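 Each test used a mechanized track sprayer delivering 187 l/ha of acetone solution at 15–1000 g ai/ha. Post-emerge foliage at 2–3 leaves was treated with added 0.25% v/v non-ionic surfactant and bottom-watered only. Injury was assessed on day 14, where 100 means total kill.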
# [4] = test system: large crabgrass (Digitaria sanguinalis, DIGSA); test: as above; details: rating scale 0-100 (0 no damage, 100 complete death), 14 days after application
# Procedure, shortened: as §2
# [5] = test system: johnsongrass (Sorghum halepense, SORHA); test: as above; details: rating scale 0-100 (0 no damage, 100 complete death), 14 days after application
# Procedure, shortened: as §2
# [6] = test system: barnyardgrass (Echinochloa crus-galli, ECHCG); test: as above; details: rating scale 0-100 (0 no damage, 100 complete death), 14 days after application
# Procedure, shortened: as §2
# [7] = test system: velvetleaf (Abutilon theophrasti, ABUTH); test: as above; details: rating scale 0-100 (0 no damage, 100 complete death), 14 days after application
# Procedure, shortened: as §2
# [8] = test system: lambsquarters (Chenopodium album, CHEAL); test: as above; details: rating scale 0-100 (0 no damage, 100 complete death), 14 days after application
# Procedure, shortened: as §2
# [9] = test system: ivyleaf morningglory (Ipomoea hederacea, IPOHE); test: as above; details: rating scale 0-100 (0 no damage, 100 complete death), 14 days after application
# Procedure, shortened: as §2
# [10] = test system: green foxtail (Setaria viridis, SETVI); test: as above; details: rating scale 0-100 (0 no damage, 100 complete death), 14 days after application
# Procedure, shortened: as §2
# [11] = test system: common ragweed (Ambrosia artemisizfolia L., AMBEL); test: as above; details: rating scale 0-100 (0 no damage, 100 complete death), 14 days after application
# Procedure, shortened: as §2
# [12] = test system: redroot pigweed (Amaranthus retroflexus, AMARE); test: as above; details: rating scale 0-100 (0 no damage, 100 complete death), 14 days after application
# Procedure, shortened: as §2
# [13] = test system: redroot pigweed (Amaranthus retroflexus, AMARE); test: Pre-emerge test, greenhouse herbicide activity screening; details: rating scale 0-100, 14 days after application
# Procedure, shortened: (§3)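 Herbicidal damage is scored 0 (none) to 100 (complete plant death) two weeks after a simulated field spray. Rates span 15–1000 g ai/ha, delivered in acetone at 187 l/ha. For post-emergence treatments, plants have 2–3 leaves and the spray carries 0.25% v/v non-ionic surfactant.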
# [14] = test system: sicklepod (Cassia obtusifolia, CASOB); test: as above; details: rating scale 0-100, 14 days after application
# Procedure, shortened: as §1
# [15] = test system: large crabgrass (Digitaria sanguinalis, DIGSA); test: as above; details: rating scale 0-100, 14 days after application
# Procedure, shortened: as §1
# [16] = test system: johnsongrass (Sorghum halepense, SORHA); test: as above; details: rating scale 0-100, 14 days after application
# Procedure, shortened: as §1
# [17] = test system: barnyardgrass (Echinochloa crus-galli, ECHCG); test: as above; details: rating scale 0-100, 14 days after application
# Procedure, shortened: as §1
# [18] = test system: velvetleaf (Abutilon theophrasti, ABUTH); test: as above; details: rating scale 0-100, 14 days after application
# Procedure, shortened: as §1
# [19] = test system: lambsquarters (Chenopodium album, CHEAL); test: as above; details: rating scale 0-100, 14 days after application
# Procedure, shortened: as §1
# [20] = test system: ivyleaf morningglory (Ipomoea hederacea, IPOHE); test: as above; details: rating scale 0-100, 14 days after application
# Procedure, shortened: as §1
# [21] = test system: green foxtail (Setaria viridis, SETVI); test: as above; details: rating scale 0-100, 14 days after application
# Procedure, shortened: as §1
# [22] = test system: common ragweed (Ambrosia artemisizfolia L., AMBEL); test: as above; details: rating scale 0-100, 14 days after application
# Procedure, shortened: as §1
# [23] = test system: upland rice (Oryza sp., var. Tebonnet, RICE); test: Pre-emerge test, crop safety; details: rating scale 0-100, 14 days after application
# Procedure, shortened: as §3
# [24] = test system: field corn (Zea mays L., var. Dekalb 535, CORN); test: Pre-emerge test, crop safety; details: rating scale 0-100, 14 days after application
# Procedure, shortened: as §3
smiles,measurement,setting,value
CCCCOC(=O)C(C)(Cl)Cc1c(OC)c(Cl)cc(F)c1-n1c(=O)cc(C(F)(F)F)n(C)c1=O (stereo not drawn) [14-36],Post-emerge phytotoxicity rating RICE (crop damage),[1]; Rate 63 g ai/ha,35
same,Post-emerge phytotoxicity rating RICE (crop damage),[1]; Rate 250 g ai/ha,60
same,Post-emerge phytotoxicity rating CORN (crop damage),[2]; Rate 63 g ai/ha,95
same,Post-emerge phytotoxicity rating CORN (crop damage),[2]; Rate 250 g ai/ha,95
same,"Post-emerge Herbicidal Activity, phytotoxicity rating CASOB",[3]; Rate 63 g ai/ha,20
same,"Post-emerge Herbicidal Activity, phytotoxicity rating CASOB",[3]; Rate 250 g ai/ha,40
same,"Post-emerge Herbicidal Activity, phytotoxicity rating DIGSA",[4]; Rate 63 g ai/ha,40
same,"Post-emerge Herbicidal Activity, phytotoxicity rating DIGSA",[4]; Rate 250 g ai/ha,65
same,"Post-emerge Herbicidal Activity, phytotoxicity rating SORHA",[5]; Rate 63 g ai/ha,20
same,"Post-emerge Herbicidal Activity, phytotoxicity rating SORHA",[5]; Rate 250 g ai/ha,40
same,"Post-emerge Herbicidal Activity, phytotoxicity rating ECHCG",[6]; Rate 63 g ai/ha,99
same,"Post-emerge Herbicidal Activity, phytotoxicity rating ECHCG",[6]; Rate 250 g ai/ha,100
same,"Post-emerge Herbicidal Activity, phytotoxicity rating ABUTH",[7]; Rate 63 g ai/ha,95
same,"Post-emerge Herbicidal Activity, phytotoxicity rating ABUTH",[7]; Rate 250 g ai/ha,100
same,"Post-emerge Herbicidal Activity, phytotoxicity rating CHEAL",[8]; Rate 63 g ai/ha,99
same,"Post-emerge Herbicidal Activity, phytotoxicity rating CHEAL",[8]; Rate 250 g ai/ha,100
same,"Post-emerge Herbicidal Activity, phytotoxicity rating IPOHE",[9]; Rate 63 g ai/ha,30
same,"Post-emerge Herbicidal Activity, phytotoxicity rating IPOHE",[9]; Rate 250 g ai/ha,70
same,"Post-emerge Herbicidal Activity, phytotoxicity rating SETVI",[10]; Rate 63 g ai/ha,85
same,"Post-emerge Herbicidal Activity, phytotoxicity rating SETVI",[10]; Rate 250 g ai/ha,99
same,"Post-emerge Herbicidal Activity, phytotoxicity rating AMBEL",[11]; Rate 63 g ai/ha,100
same,"Post-emerge Herbicidal Activity, phytotoxicity rating AMBEL",[11]; Rate 250 g ai/ha,95
same,"Post-emerge Herbicidal Activity, phytotoxicity rating AMARE",[12]; Rate 63 g ai/ha,100
same,"Post-emerge Herbicidal Activity, phytotoxicity rating AMARE",[12]; Rate 250 g ai/ha,100
same,"Pre-emerge herbicidal activity, phytotoxicity rating AMARE",[13]; 63 g ai/ha,75
same,"Pre-emerge herbicidal activity, phytotoxicity rating AMARE",[13]; 250 g ai/ha,100
same,"Pre-emerge herbicidal activity, phytotoxicity rating CASOB",[14]; 63 g ai/ha,0
same,"Pre-emerge herbicidal activity, phytotoxicity rating CASOB",[14]; 250 g ai/ha,0
same,"Pre-emerge herbicidal activity, phytotoxicity rating DIGSA",[15]; 63 g ai/ha,30
same,"Pre-emerge herbicidal activity, phytotoxicity rating DIGSA",[15]; 250 g ai/ha,95
same,"Pre-emerge herbicidal activity, phytotoxicity rating SORHA",[16]; 63 g ai/ha,0
same,"Pre-emerge herbicidal activity, phytotoxicity rating SORHA",[16]; 250 g ai/ha,30
same,"Pre-emerge herbicidal activity, phytotoxicity rating ECHCG",[17]; 63 g ai/ha,0
same,"Pre-emerge herbicidal activity, phytotoxicity rating ECHCG",[17]; 250 g ai/ha,90
same,"Pre-emerge herbicidal activity, phytotoxicity rating ABUTH",[18]; 63 g ai/ha,100
same,"Pre-emerge herbicidal activity, phytotoxicity rating ABUTH",[18]; 250 g ai/ha,100
same,"Pre-emerge herbicidal activity, phytotoxicity rating CHEAL",[19]; 63 g ai/ha,75
same,"Pre-emerge herbicidal activity, phytotoxicity rating CHEAL",[19]; 250 g ai/ha,100
same,"Pre-emerge herbicidal activity, phytotoxicity rating IPOHE",[20]; 63 g ai/ha,0
same,"Pre-emerge herbicidal activity, phytotoxicity rating IPOHE",[20]; 250 g ai/ha,0
same,"Pre-emerge herbicidal activity, phytotoxicity rating SETVI",[21]; 63 g ai/ha,10
same,"Pre-emerge herbicidal activity, phytotoxicity rating SETVI",[21]; 250 g ai/ha,95
same,"Pre-emerge herbicidal activity, phytotoxicity rating AMBEL",[22]; 63 g ai/ha,10
same,"Pre-emerge herbicidal activity, phytotoxicity rating AMBEL",[22]; 250 g ai/ha,80
same,"Pre-emerge phytotoxicity rating, crop damage RICE",[23]; 63 g ai/ha,10
same,"Pre-emerge phytotoxicity rating, crop damage RICE",[23]; 250 g ai/ha,70
same,"Pre-emerge phytotoxicity rating, crop damage CORN",[24]; 63 g ai/ha,0
same,"Pre-emerge phytotoxicity rating, crop damage CORN",[24]; 250 g ai/ha,10
